Test results from PubChem BioAssay AID1963970 (Molecular Pharmacology Branch, DTP, NCI, 2024).
Values joined by “and” are separate entries in the source; they are usually repeats but may differ in a detail not shown here. Identical values can stand only once. Each block holds one compound with its values, some of them ahead of it.

System: 931267-113-T-J1-PDC multicell spheroid viability
Test: Anticancer human tumor 931267-113-T-J1-PDC patient-derived colon adenocarcinoma cell line growth inhibition [PI3K]
Settings: for viability, T/C: stronger effect = lower value
Summary of the method: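 Spheroid viability read-out. Co-cultures contained the tumor line plus HUVEC and human MSCs. Each agent was paired with a PI3K inhibitor (inavolisib, alpelisib, duvelisib, copanlisib) across half-log dilutions starting at clinical Cmax, or at 10 microM when Cmax was unknown.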

[1] = curve of first compound, second compound 0.0316 µM
[2] = curve of first compound, second compound 0.1 µM
[3] = curve of first compound, second compound 0.316 µM
[4] = curve of first compound, second compound 1 µM
[5] = curve of first compound, second compound 3.16 µM
[6] = curve of first compound, second compound 10 µM
[7] = second compound 0.0316 µM, first compound 0.0316 µM
[8] = second compound 0.0316 µM, first compound 0.1 µM
[9] = second compound 0.0316 µM, first compound 0.316 µM
[10] = second compound 0.0316 µM, first compound 1 µM
[11] = second compound 0.0316 µM, first compound 3.16 µM
[12] = second compound 0.0316 µM, first compound 10 µM
[13] = second compound 0.1 µM, first compound 0.0316 µM
[14] = second compound 0.1 µM, first compound 0.1 µM
[15] = second compound 0.1 µM, first compound 0.316 µM
[16] = second compound 0.1 µM, first compound 1 µM
[17] = second compound 0.1 µM, first compound 3.16 µM
[18] = second compound 0.1 µM, first compound 10 µM
[19] = second compound 0.316 µM, first compound 0.0316 µM
[20] = second compound 0.316 µM, first compound 0.1 µM
[21] = second compound 0.316 µM, first compound 0.316 µM
[22] = second compound 0.316 µM, first compound 1 µM
[23] = second compound 0.316 µM, first compound 3.16 µM
[24] = second compound 0.316 µM, first compound 10 µM
[25] = second compound 1 µM, first compound 0.0316 µM
[26] = second compound 1 µM, first compound 0.1 µM
[27] = second compound 1 µM, first compound 0.316 µM
[28] = second compound 1 µM, first compound 1 µM
[29] = second compound 1 µM, first compound 3.16 µM
[30] = second compound 1 µM, first compound 10 µM
[31] = second compound 3.16 µM, first compound 0.0316 µM
[32] = second compound 3.16 µM, first compound 0.1 µM
[33] = second compound 3.16 µM, first compound 0.316 µM
[34] = second compound 3.16 µM, first compound 1 µM
[35] = second compound 3.16 µM, first compound 3.16 µM
[36] = second compound 3.16 µM, first compound 10 µM
[37] = second compound 10 µM, first compound 0.0316 µM
[38] = second compound 10 µM, first compound 0.1 µM
[39] = second compound 10 µM, first compound 0.316 µM
[40] = second compound 10 µM, first compound 1 µM
[41] = second compound 10 µM, first compound 3.16 µM
[42] = second compound 10 µM, first compound 10 µM
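Note: viability read 7 days after compound addition.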

Structure (SMILES): CC1(C)CCC(CN2CCN(c3ccc(C(=O)NS(=O)(=O)c4ccc(NCC5CCOCC5)c([N+](=O)[O-])c4)c(Oc4cnc5[nH]ccc5c4)c3)CC2)=C(c2ccc(Cl)cc2)C1 + COc1c(OCCCN2CCOCC2)ccc2c3n(c(=NC(=O)c4cnc(N)nc4)nc12)CCN3
- IC50 (curve of first compound, second compound 0.00316 µM): > 10 µM
- IC50 (curve of first compound, second compound 0.01 µM): > 10 µM
- IC50 [1]: > 10 µM
- IC50 [2]: 7.49 µM
- IC50 [3]: 2.36 µM
- IC50 [4]: < 0.0316 µM
- viability, T/C (second compound 0.00316 µM, first compound 0.0316 µM): 105%
- viability, T/C (second compound 0.00316 µM, first compound 0.1 µM): 99.5%
- viability, T/C (second compound 0.00316 µM, first compound 0.316 µM): 99%
- viability, T/C (second compound 0.00316 µM, first compound 1 µM): 102%
- viability, T/C (second compound 0.00316 µM, first compound 3.16 µM): 99.7%
- viability, T/C (second compound 0.00316 µM, first compound 10 µM): 80.8%
- viability, T/C (second compound 0.01 µM, first compound 0.0316 µM): 104%
- viability, T/C (second compound 0.01 µM, first compound 0.1 µM): 104%
- viability, T/C (second compound 0.01 µM, first compound 0.316 µM): 97.6%
- viability, T/C (second compound 0.01 µM, first compound 1 µM): 91.7%
- viability, T/C (second compound 0.01 µM, first compound 3.16 µM): 96.5%
- viability, T/C (second compound 0.01 µM, first compound 10 µM): 71.1%
- viability, T/C [7]: 92.4%
- viability, T/C [8]: 89.8%
- viability, T/C [9]: 92.8%
- viability, T/C [10]: 86.4%
- viability, T/C [11]: 87.3%
- viability, T/C [12]: 68.2%
- viability, T/C [13]: 74.9%
- viability, T/C [14]: 74.8%
- viability, T/C [15]: 71.2%
- viability, T/C [16]: 65.1%
- viability, T/C [17]: 59.5%
- viability, T/C [18]: 46.8%
- viability, T/C [19]: 53.5%
- viability, T/C [20]: 50.3%
- viability, T/C [21]: 49.2%
- viability, T/C [22]: 51.7%
- viability, T/C [23]: 49.6%
- viability, T/C [24]: 31.3%
- viability, T/C [25]: 37.5%
- viability, T/C [26]: 32.5%
- viability, T/C [27]: 35.8%
- viability, T/C [28]: 36.1%
- viability, T/C [29]: 33.7%
- viability, T/C [30]: 33.3%

Structure (SMILES): CC1(C)CCC(CN2CCN(c3ccc(C(=O)NS(=O)(=O)c4ccc(NCC5CCOCC5)c([N+](=O)[O-])c4)c(Oc4cnc5[nH]ccc5c4)c3)CC2)=C(c2ccc(Cl)cc2)C1
- viability, T/C (compound 0.0316 µM): 97.9% [middle of 4 runs]
- viability, T/C (compound 0.1 µM): 95.5% [middle of 4 runs]
- viability, T/C (compound 0.316 µM): 106% [middle of 4 runs]
- viability, T/C (compound 1 µM): 103% [middle of 4 runs]
- viability, T/C (compound 3.16 µM): 93.7% and 104% and 105% (2×)

Structure (SMILES): C#Cc1c(F)ccc2cc(O)cc(-c3ncc4c(N5CC6CCC(C5)N6)nc(OCC56CCCN5CC(F)C6)nc4c3F)c12 (stereo not given) + Cc1nc(NC(=O)N2CCCC2C(N)=O)sc1-c1ccnc(C(C)(C)C(F)(F)F)c1
- IC50 [1]: 0.403 µM
- IC50 [2]: 0.467 µM
- IC50 [3]: 0.183 µM
- IC50 [4]: 0.127 µM
- IC50 [5]: 0.104 µM
- IC50 [6]: < 0.0316 µM
- viability, T/C [7]: 80.2%
- viability, T/C [8]: 71.2%
- viability, T/C [9]: 50.4%
- viability, T/C [10]: 40%
- viability, T/C [11]: 29.8%
- viability, T/C [12]: 23.8%
- viability, T/C [13]: 84.3%
- viability, T/C [14]: 71.8%
- viability, T/C [15]: 54.1%
- viability, T/C [16]: 41.4%
- viability, T/C [17]: 25.6%
- viability, T/C [18]: 19.4%
- viability, T/C [19]: 72.6%
- viability, T/C [20]: 59.2%
- viability, T/C [21]: 41.4%
- viability, T/C [22]: 30.9%
- viability, T/C [23]: 26.3%
- viability, T/C [24]: 15.3%
- viability, T/C [25]: 67.3%
- viability, T/C [26]: 54.3%
- viability, T/C [27]: 37.2%
- viability, T/C [28]: 28.3%
- viability, T/C [29]: 21%
- viability, T/C [30]: 13.7%
- viability, T/C [31]: 67%
- viability, T/C [32]: 51.9%
- viability, T/C [33]: 29.4%
- viability, T/C [34]: 21.2%
- viability, T/C [35]: 15.8%
- viability, T/C [36]: 11.5%
- viability, T/C [37]: 49.1%
- viability, T/C [38]: 38.7%
- viability, T/C [39]: 25.2%
- viability, T/C [40]: 18.8%
- viability, T/C [41]: 16.9%
- viability, T/C [42]: 9.04%

Second part, led by results:

- IC50 [1]: > 10 µM
- IC50 [2]: > 10 µM
- IC50 [3]: > 10 µM
- IC50 [4]: > 10 µM
- IC50 [5]: > 10 µM
- IC50 [6]: > 10 µM
Structure (SMILES): CC(Cn1ccc(-c2ccc(C#N)c(Cl)c2)n1)NC(=O)c1cc(C(C)O)[nH]n1 (stereo not given) + CC(Nc1ncnc2nc[nH]c12)c1cc2cccc(Cl)c2c(=O)n1-c1ccccc1
- viability, T/C [7]: 104%
- viability, T/C [8]: 110%
- viability, T/C [9]: 106%
- viability, T/C [10]: 105%
- viability, T/C [11]: 116%
- viability, T/C [12]: 96.7%
- viability, T/C [13]: 114%
- viability, T/C [14]: 101%
- viability, T/C [15]: 102%
- viability, T/C [16]: 108%
- viability, T/C [17]: 102%
- viability, T/C [18]: 103%
- viability, T/C [19]: 111%
- viability, T/C [20]: 107%
- viability, T/C [21]: 104%
- viability, T/C [22]: 107%
- viability, T/C [23]: 105%
- viability, T/C [24]: 101%
- viability, T/C [25]: 113%
- viability, T/C [26]: 110%
- viability, T/C [27]: 102%
- viability, T/C [28]: 118%
- viability, T/C [29]: 107%
- viability, T/C [30]: 102%
- viability, T/C [31]: 103%
- viability, T/C [32]: 98.5%
- viability, T/C [33]: 87%
- viability, T/C [34]: 99.6%
- viability, T/C [35]: 101%
- viability, T/C [36]: 94.7%
- viability, T/C [37]: 88%
- viability, T/C [38]: 94.8%
- viability, T/C [39]: 99.4%
- viability, T/C [40]: 95.8%
- viability, T/C [41]: 92.5%
- viability, T/C [42]: 87.8%

- IC50 (curve of compound): > 0.1 µM
Structure (SMILES): CC(=O)c1c(C)c2cnc(Nc3ccc(N4CCNCC4)cn3)nc2n(C2CCCC2)c1=O
- viability, T/C (compound 0.000316 µM): 112% and 99.6% and 105%
- viability, T/C (compound 0.001 µM): 110% and 101% and 102%
- viability, T/C (compound 0.00316 µM): 103% and 113% and 106%
- viability, T/C (compound 0.01 µM): 108% and 111% and 103%
- viability, T/C (compound 0.0316 µM): 99.5% and 106% and 104%
- viability, T/C (compound 0.1 µM): 89.5% and 91.3% and 105%

- IC50 [1]: > 10 µM
- IC50 [2]: > 10 µM
- IC50 [3]: > 10 µM
- IC50 [4]: > 10 µM
- IC50 [5]: > 10 µM
- IC50 [6]: > 10 µM
Structure (SMILES): CC(C)NCC(C(=O)N1CCN(c2ncnc3c2C(C)CC3O)CC1)c1ccc(Cl)cc1 (stereo not given) + Cc1nc(NC(=O)N2CCCC2C(N)=O)sc1-c1ccnc(C(C)(C)C(F)(F)F)c1
- viability, T/C [7]: 103%
- viability, T/C [8]: 103%
- viability, T/C [9]: 90.9%
- viability, T/C [10]: 95.2%
- viability, T/C [11]: 97.6%
- viability, T/C [12]: 73.5%
- viability, T/C [13]: 97.8%
- viability, T/C [14]: 85.5%
- viability, T/C [15]: 92.6%
- viability, T/C [16]: 86.7%
- viability, T/C [17]: 83.5%
- viability, T/C [18]: 71.7%
- viability, T/C [19]: 97.9%
- viability, T/C [20]: 89.6%
- viability, T/C [21]: 88.7%
- viability, T/C [22]: 84%
- viability, T/C [23]: 80.4%
- viability, T/C [24]: 68.6%
- viability, T/C [25]: 82.2%
- viability, T/C [26]: 80.4%
- viability, T/C [27]: 89.3%
- viability, T/C [28]: 88.8%
- viability, T/C [29]: 79.9%
- viability, T/C [30]: 67.7%
- viability, T/C [31]: 73.2%
- viability, T/C [32]: 81.1%
- viability, T/C [33]: 67.7%
- viability, T/C [34]: 65%
- viability, T/C [35]: 70%
- viability, T/C [36]: 61%
- viability, T/C [37]: 60.4%
- viability, T/C [38]: 52.4%
- viability, T/C [39]: 59%
- viability, T/C [40]: 57.4%
- viability, T/C [41]: 62.8%
- viability, T/C [42]: 51.4%
